Where two headings read alike, the source gives them in different places.
What was measured:
inseminated rats = assay: Antinidation / Nidation Inhibition Test in inseminated rats treated on the 1st day of gestation; assay type: in vivo, rat; settings: for ED50 / ED5 / ED95: Rattus norvegicus, po
Excerpt: The favorable biological properties of the named compounds of the process according to the invention are to be further illustrated and described in the example of 3-methoxy-14β-15β-methylene-estra-1,3,5(10)-triene-17β-ol (test designation STS 593).
(§1) Gestation and nidation inhibition expressed in % were used as parameters for antifertility effects. GHE1 (gestation inhibitory effect) and IHE1 (nidation inhibitory effect) were related to the inhibition of the total of gestations or nidations, GHE2 and IHE2 were related to the inhibition of normal gestations or nidations within each group. […] GHE1, GHE2, IHE1 and IHE2 were calculated using the following formulae: [formula] n=number of females inseminated in each group v=test group
k=control group (sesame oil)
x=number of all gestations (GHE1) and of normal gestations (GHE2) p. group, respectively
(§2) f=average number (x) of all implantations (IHE1) and of normal implantations (IHE2) p. female inseminated within a group, respectively.
The comparison of the relative incidence of gestations was performed by the Ryan test, the comparison of the number of implantations by the Dunn test.
(§3) For GHE1 and GHE2 the ED (effective doses) for the HE (inhibitory effect) 0%, 50%, and 95% as far as possible were determined by means of the probit analysis. The ED50 for IHE1 and IHE2 were determined graphically.

ovariectomized mice = assay: Allen-Doisy test in ovariectomized mice (estrogenic properties); assay type: in vivo, mouse
Excerpt: (§4) STS 593 was weaker than ethynylestradiol by a factor of 9 in its estrogenic properties as shown by the Allen-Doisy test in ovariectomized mice. The compound was only 7% as active as the standard mestranol in producing a uterine response in infantile rats (Table 3), whereas the antiestrogenic properties exceeded those of clomiphene citrate by a factor of 1.4.

[1] = test system: infantile female Wistar rats; assay: Uterine activity in infantile female Wistar rats; assay type: in vivo, Wistar rat; settings: for Uterine weight (-x): n=10
Excerpt: as §4
Comparison of uterine activity in infantile female
Wistar rats produced by STS 593 and mestranol

[2] = Antiestrogenic properties; settings: in vivo
Excerpt: as §4

infantile male rats = assay: Androgenic, anabolic and antiandrogenic effects in infantile male rats; assay type: in vivo, rat; settings: orally over 6 days, total doses 0.75-3.0 mg/animal
Excerpt: (§5) The HE of 97.3% is significant (Table 5).

infantile rabbit uteri = assay: McPhail test, progestagenic and antiprogestagenic activities in infantile rabbit uteri; assay type: in vivo
Excerpt: as §5
Progestagenic and antiprogestagenic activities of STS 593
in infantile rabbit uteri as shown by the McPhail test

[3] = in vivo
Excerpt: In this context the compound is better than mestranol by a factor of 6.

[4] = test system: mice (uterine fresh weight); assay: Uterine activity in mice (dose for doubling uterine fresh weight); assay type: in vivo, mouse; settings: p.o.
Excerpt: (§6) Uterine and contraceptive activities produced by selected
(§7) 14,15-methylene-17-ol-estratrienes in mice

mice = assay: Contraceptive activity in mice, single application on 1st day of gestation; assay type: in vivo, mouse; settings: mice, 10 mg/kg p.o., single application
Method: as §1, §2, §3, §6, §7

[5] = General statement on antifertility effects and separation from uterine, estrogenic and antigonadotrophic activities; assay type: in vivo; settings: compared to mestranol
[6] = 1st trial 1975, 0.1 mg/kg p.o., n=12
[7] = 1st trial 1975, 0.3 mg/kg p.o., n=12
[8] = 1st trial 1975, 0.9 mg/kg p.o., n=12
[9] = 2nd trial 1978, 0.08 mg/kg p.o., n=10
[10] = 2nd trial 1978, 0.16 mg/kg p.o., n=10
[11] = 2nd trial 1978, 0.32 mg/kg p.o., n=10
[12] = 2nd trial 1978, 0.64 mg/kg p.o., n=10
[13] = 2nd trial 1978, 1.28 mg/kg p.o., n=10
[14] = 10 mg/kg p.o. + progesterone 4 mg/animal s.c., over 4 days, n=5

In the case of `COc1ccc2c(c1)CC[C@@H]1[C@@H]2CC[C@]2(C)[C@@H](O)C[C@H]3C[C@@]312` [STS 593, 3-methoxy-14β,15β-methylene-estra-1,3,5(10)-triene-17β-ol], the “Female rats pregnant of n, normal” value (inseminated rats; [6]) is reported as 10, the “Female rats pregnant of n, total” value (inseminated rats; [6]) is reported as 10 and the GHE1 (inseminated rats; [6]) is reported as 16.7%. For the same molecule, the GHE2 (inseminated rats; [6]) was 16.7%, the IHE1 (inseminated rats; [6]) was 30.0% and the IHE2 (inseminated rats; [6]) was 34.7%. For the same molecule, the “Implantations per female (-x), normal” value (inseminated rats; [6]) was 8.2, the “Implantations per female (-x), total” value (inseminated rats; [6]) was 8.8 and the “Female rats pregnant of n, normal” value (inseminated rats; [7]) was 5. For the same molecule, the “Female rats pregnant of n, total” value (inseminated rats; [7]) was 8, the GHE1 (inseminated rats; [7]) was 33.3% and the GHE2 (inseminated rats; [7]) was 58.3%. The IHE1 (inseminated rats; [7]) was 70.0%, the IHE2 (inseminated rats; [7]) was 72.7% and the “Implantations per female (-x), normal” value (inseminated rats; [7]) was 3.4. For the same molecule, the “Implantations per female (-x), total” value (inseminated rats; [7]) was 3.8, the “Female rats pregnant of n, normal” value (inseminated rats; [8]) was 3 and the “Female rats pregnant of n, total” value (inseminated rats; [8]) was 6. The GHE1 (inseminated rats; [8]) was 50.0%, the GHE2 (inseminated rats; [8]) was 75.0% and the IHE1 (inseminated rats; [8]) was 86.7%. The IHE2 (inseminated rats; [8]) was 94.7%, the “Implantations per female (-x), normal” value (inseminated rats; [8]) was 0.7 and the “Implantations per female (-x), total” value (inseminated rats; [8]) was 1.7. The “Female rats pregnant of n, normal” value (inseminated rats; [9]) was 9, the “Female rats pregnant of n, total” value (inseminated rats; [9]) was 9 and the GHE1 (inseminated rats; [9]) was 10%. For the same molecule, the GHE2 (inseminated rats; [9]) was 10%, the IHE1 (inseminated rats; [9]) was 18.5% and the IHE2 (inseminated rats; [9]) was 19.2%. The “Implantations per female (-x), normal” value (inseminated rats; [9]) was 10.5, the “Implantations per female (-x), total” value (inseminated rats; [9]) was 10.6 and the “Female rats pregnant of n, normal” value (inseminated rats; [10]) was 2. For the same molecule, the “Female rats pregnant of n, total” value (inseminated rats; [10]) was 10, the GHE1 (inseminated rats; [10]) was 0% and the GHE2 (inseminated rats; [10]) was 80%. The IHE1 (inseminated rats; [10]) was 32.3%, the IHE2 (inseminated rats; [10]) was 82.3% and the “Implantations per female (-x), normal” value (inseminated rats; [10]) was 2.3. For the same molecule, the “Implantations per female (-x), total” value (inseminated rats; [10]) was 8.8, the “Female rats pregnant of n, normal” value (inseminated rats; [11]) was 3 and the “Female rats pregnant of n, total” value (inseminated rats; [11]) was 5. For the same molecule, the GHE1 (inseminated rats; [11]) was 50%, the GHE2 (inseminated rats; [11]) was 70% and the IHE1 (inseminated rats; [11]) was 74.6%. The IHE2 (inseminated rats; [11]) was 86.1%, the “Implantations per female (-x), normal” value (inseminated rats; [11]) was 1.8 and the “Implantations per female (-x), total” value (inseminated rats; [11]) was 3.3. For the same molecule, the “Female rats pregnant of n, normal” value (inseminated rats; [12]) was 0, the “Female rats pregnant of n, total” value (inseminated rats; [12]) was 4 and the GHE1 (inseminated rats; [12]) was 60%. For the same molecule, the GHE2 (inseminated rats; [12]) was 100%, the IHE1 (inseminated rats; [12]) was 87.7% and the IHE2 (inseminated rats; [12]) was 100%. The “Implantations per female (-x), normal” value (inseminated rats; [12]) was 0, the “Implantations per female (-x), total” value (inseminated rats; [12]) was 1.6 and the “Female rats pregnant of n, normal” value (inseminated rats; [13]) was 0. The “Female rats pregnant of n, total” value (inseminated rats; [13]) was 2, the GHE1 (inseminated rats; [13]) was 80% and the GHE2 (inseminated rats; [13]) was 100%. The IHE1 (inseminated rats; [13]) was 88.5%, the IHE2 (inseminated rats; [13]) was 100% and the “Implantations per female (-x), normal” value (inseminated rats; [13]) was 0. The “Implantations per female (-x), total” value (inseminated rats; [13]) was 1.5, the ED50 (inseminated rats; according to trial No. 1, read-out: ED50 for IHE1) was 0.175 mg/kg and the ED50 (inseminated rats; according to trial No. 1, read-out: ED50 for IHE2) was 0.155 mg/kg. The ED50 (inseminated rats; determined graphically, STS 593 from trial No. 2, read-out: ED 50 for IHE1) was 0.22 mg/kg, the ED50 (inseminated rats; determined graphically, STS 593 from trial No. 2, read-out: ED 50 for IHE2) was 0.112 mg/kg and the ED5 (inseminated rats; probit analysis, STS 593 from trial No. 2, read-out: ED 05 for GHE1) was 0.078 mg/kg. The ED5 (inseminated rats; probit analysis, STS 593 from trial No. 2, read-out: ED 05 for GHE2) was 0.044 mg/kg, the ED50 (inseminated rats; probit analysis, STS 593 from trial No. 2, read-out: ED 50 for GHE1) was 0.474 mg/kg and the ED50 (inseminated rats; probit analysis, STS 593 from trial No. 2, read-out: ED 50 for GHE2) was 0.147 mg/kg. For the same molecule, the ED95 (inseminated rats; probit analysis, STS 593 from trial No. 2, read-out: ED 95 for GHE1) was 2.59 mg/kg, the ED95 (inseminated rats; probit analysis, STS 593 from trial No. 2, read-out: ED 95 for GHE2) was 0.454 mg/kg and the “Contraceptive activity related to IHE1, compared to ethynylestradiol” value (inseminated rats; female rat) was “nearly double the activity of ethynylestradiol”. For the same molecule, the “Contraceptive activity related to IHE1, compared to mestranol” value (inseminated rats; female rat) was “in the range of that of mestranol”, the “Estrogenic properties: factor weaker than ethynylestradiol” value (ovariectomized mice) was 9 factor and the “Uterine response, activity relative to mestranol” value ([1]; infantile rats) was 7%. The “Uterine weight (-x)” value ([1]; total dose 0.1 per animal over 3 days p.o.) was 27.63 mg, the “Uterine weight (-x)” value ([1]; total dose 1.0 per animal over 3 days p.o.) was 52.40 mg and the “Uterine weight (-x)” value ([1]; total dose 10.0 per animal over 3 days p.o.) was 75.90 mg. For the same molecule, the “Antiestrogenic properties: factor exceeding clomiphene citrate” value [2] was 1.4 factor, the “Antiestrogenic properties (in words)” value ([2]; listed as 3-methoxy-14β,15β-methylene-estra-1,3,5(10)-triene-17β-ol) was “marked antiestrogenic properties” and the “Antiestrogenic properties (in words)” value ([2]; listed as 3-methoxy-14β-15β-methylene-estra-1,3,5(10)-triene-17β-ol) was “produces antiestrogenic and antiprogestagenic effects”. For the same molecule, the Anabolic effects (infantile male rats) was “did not show any”, the Androgenic effects (infantile male rats) was “did not show any” and the Antiandrogenic effects (infantile male rats) was “did not show any”. For the same molecule, the “McPhail index (-x)” value (infantile rabbit uteri; 2 mg/kg p.o. + progesterone 4 mg/animal s.c., over 4 days, n=6) was 3.8, the “McPhail index (-x)” value (infantile rabbit uteri; 2 mg/kg p.o. alone, total dose over 4 days, n=5) was 0 and the HE % (infantile rabbit uteri; [14]) was 26.7%. For the same molecule, the “McPhail index (-x)” value (infantile rabbit uteri; [14]) was 2.2, the “McPhail index (-x)” value (infantile rabbit uteri; 50 mg/kg p.o. + progesterone 4 mg/animal s.c., over 4 days, n=6) was 0.08 and the HE % (infantile rabbit uteri; 50 mg/kg p.o. + progesterone 4 mg/animal s.c., over 4 days, significant) was 97.3%. The “Antiprogestagenic effects (in words)” value (infantile rabbit uteri; rabbit, in vivo) was “produces antiestrogenic and antiprogestagenic effects”, the Progestagenic activity (infantile rabbit uteri; rabbit, in vivo) was “lacking in progestagenic activity” and the Antiprogestagenic properties (infantile rabbit uteri; rabbits, oral, 50 mg/kg) was “showed antiprogestanenic properties”. The “Separation of contraceptive activity and undesirable post implantation fetal damage (in words)” value [3] was “favorable separation”, the “Separation of contraceptive activity and undesirable post implantation fetal damage: factor better than mestranol” value [3] was 6 factor and the “Total dose for doubling uterine fresh weight” value [4] was 0.45 μg/animal. The “THE, % after single application of 10 mg/kg of body-wt. on the 1st day of gestation p.o.” value (mice) was 80.2% and the “Separation of contraceptive properties and undesirable (estrogenic, antigonadotrophic, progestagenic) side-effects vs mestranol” value [5] was “more favorable separation”.
